Test system: D5 Th1 T cell line
Assay: nucleic acid expression profile of D5 Th1 T cell line stimulated with 500 nM ionomycin, 1 μM CsA plus ionomycin or 20 nM PMA plus ionomycin; 19K chip, second replicate
Format: cell-based, murine
Design: expression level of Msa.15983.0_f_at / expression level of Msa.1669.0_f_at / expression level of Msa.18713.0_g_at / expression level of D86609_s_at / expression level of TC19211_at / expression level of TC21156_at / expression level of TC24045_at / expression level of TC30384_g_at / expression level of TC3225_at / expression level of TC38978_at / expression level of TC39080_at / expression level of TC17495_at: unit not given here
Method: D5 or primary T cells from NFAT1−/− or wild type DO11.10 transgenic mice were stimulated for 2, 6 or 16 hours with 500 nM ionomycin, 20 nM PMA plus 500 nM ionomycin, or 1 μM CsA plus 500 nM ionomycin. Total RNA was isolated with an RNeasy kit (QIAGEN). Ten μg of total RNA was quantitatively amplified and biotin-labeled as described (Byrne et al., (2000) “Preparation of mRNA for Expression Monitoring” Current Protocols in Molecular Biology (John Wiley & Sons, Inc.) pp. 22.22.21-22.22.13). […] Chips were washed, stained with SA-PE and read using an Affymetrix GeneChip® scanner and accompanying gene expression software. Labeled bacterial RNAs of known concentration were spiked into each chip hybridization mix to generate an internal standard curve, allowing normalization between chips and conversion of raw hybridization intensity values to mRNA frequency (mRNA molecules per million).
Nucleic acid expression profiles were obtained from a T cell line at multiple time points and in various T cell states. The D5 Th1 T cell line was stimulated in three different ways: 1) ionomycin alone (e.g., causing the regulatory factor NFAT to move from the cytoplasm to the nucleus); 2) ionomycin+PMA (e.g., causing both NFAT and the transcription factor AP-1 to enter the nucleus); 3) ionomycin +cyclosporin A (CsA) (e.g., preventing NFAT from entering the nucleus in response to ionomycin). […] Cells were stimulated for 0, 2, 6, and 16 hours. […] The experiment was done twice (i.e., with two replicates, Rep. 1 and Rep. 2). Nucleic acid expression at the 2, 6 and 16 hour timepoints was compared to nucleic acid expression at 0 hours.
The nucleic acid expression data was stored in a computer database. A database query was used to identify all nucleic acids that were deemed “increasing” or “decreasing” in response to ionomycin (relative to the 0 hour sample) in at least one timepoint in Rep. 1, and the nucleic acids were also deemed “increasing” or “decreasing” in response to ionomycin in Rep. 2.
To test the hypothesis that NFAT in the absence of AP-1 and NFKB induced a genetic program of anergy, genes induced in D5 T cells by ionomycin stimulation alone were evaluated (FIGS. 1, 2 and 6). Samples from D5 cells stimulated with ionomycin plus CsA, which blocks anergy induction, and ionomycin plus PMA, which pharmacologically mimic complete stimulation through the TCR and CD28 were included. RNA was prepared from unstimulated D5 T cells and from cells stimulated for 2, 6 or 16 h under these three conditions, and gene transcription profiles were evaluated using Affymetrix oligonucleotide arrays (FIG. 6A).

SMILES: C[C@H](CCC(=O)O)C[C@H](C)C[C@H](C)C(=O)/C=C(\O)[C@H](C)C[C@H](C)C/C=C/[C@@H](C)[C@@H](O)[C@@H](C)[C@@H](O)C[C@@H]1CC[C@@](C)([C@H]2CC[C@@](C)([C@@H](C)O)O2)O1 [Ionomycin, ionomycin]
- expression level of D86609_s_at (2 h): 34
- expression level of ET63436_at (2 h): 113
- expression level of MIP1-B_at (2 h): 110.5
- expression level of Msa.11439.0_s_at (2 h): 19
- expression level of Msa.15983.0_f_at (2 h): 44
- expression level of Msa.1669.0_f_at (2 h): 27
- expression level of Msa.18713.0_g_at (2 h): 83
- expression level of Msa.21745.0_s_at (2 h): 8
- expression level of TC3225_at (2 h): 34
- expression level of TC14671_g_at (2 h): 7
- expression level of TC16364_at (2 h): 4
- expression level of TC16828_at (2 h): 4
- expression level of TC17132_at (2 h): 121
- expression level of TC17495_at (2 h): 9
- expression level of TC17558_at (2 h): 41
- expression level of TC18221_at (2 h): 9
- expression level of TC19211_at (2 h): 48
- expression level of TC21156_at (2 h): 20
- expression level of TC23346_s_at (2 h): 5
- expression level of TC23450_s_at (2 h): 16
- expression level of TC24045_at (2 h): 15
- expression level of TC24067_at (2 h): 9
- expression level of TC25965_at (2 h): 42
- expression level of TC27326_g_at (2 h): 3
- expression level of TC29889_at (2 h): 11
- expression level of TC30384_g_at (2 h): 39
- expression level of TC30935_at (2 h): 93
- expression level of TC30992_s_at (2 h): 28
- expression level of TC31681_at (2 h): 56
- expression level of TC33206_at (2 h): 45
- expression level of TC33833_at (2 h): 23
- expression level of TC34186_at (2 h): 40
- expression level of TC36089_at (2 h): 156
- expression level of TC36583_at (2 h): 29
- expression level of TC37631_at (2 h): 18
- expression level of TC38094_at (2 h): 18
- expression level of TC38978_at (2 h): 6
- expression level of TC39012_at (2 h): 64
- expression level of TC39080_at (2 h): 14
- expression level of TC39762_at (2 h): 16
- expression level of TC40487_g_at (2 h): 16
- expression level of TC41014_at (2 h): 23
- expression level of U44731_s_at (2 h): 69
- expression level of X67914_s_at (2 h): 53
- expression level of Z31202_s_at (2 h): 10
- expression level of aa144045_s_at (2 h): 24
- expression level of aa174748_at (2 h): 31
- expression level of c81206_rc_at (2 h): 15
- expression level of k00083_s_at (2 h): 41
- expression level of x12531_s_at (2 h): 68
- expression level of D86609_s_at (6 h): 34
- expression level of ET63436_at (6 h): 60
- expression level of MIP1-B_at (6 h): 85.5
- expression level of Msa.11439.0_s_at (6 h): 22
- expression level of Msa.15983.0_f_at (6 h): 60
- expression level of Msa.1669.0_f_at (6 h): 32
- expression level of Msa.18713.0_g_at (6 h): 58
- expression level of Msa.21745.0_s_at (6 h): 12
- expression level of TC3225_at (6 h): 22
- expression level of TC14671_g_at (6 h): 15
- expression level of TC16364_at (6 h): 5
- expression level of TC16828_at (6 h): 17
- expression level of TC17132_at (6 h): 155
- expression level of TC17495_at (6 h): 12
- expression level of TC17558_at (6 h): 57
- expression level of TC18221_at (6 h): 17
- expression level of TC19211_at (6 h): 22
- expression level of TC21156_at (6 h): 25
- expression level of TC23346_s_at (6 h): 12
- expression level of TC23450_s_at (6 h): 21
- expression level of TC24045_at (6 h): 15
- expression level of TC24067_at (6 h): 19
- expression level of TC25965_at (6 h): 35
- expression level of TC27326_g_at (6 h): 4
- expression level of TC29889_at (6 h): 10
- expression level of TC30384_g_at (6 h): 29
- expression level of TC30935_at (6 h): 60
- expression level of TC30992_s_at (6 h): 9
- expression level of TC31681_at (6 h): 31
- expression level of TC33206_at (6 h): 19
- expression level of TC33833_at (6 h): 23
- expression level of TC34186_at (6 h): 38
- expression level of TC36089_at (6 h): 149
- expression level of TC36583_at (6 h): 26
- expression level of TC37631_at (6 h): 12
- expression level of TC38094_at (6 h): 10
- expression level of TC38978_at (6 h): 3
- expression level of TC39012_at (6 h): 42
- expression level of TC39080_at (6 h): 11
- expression level of TC39762_at (6 h): 15
- expression level of TC40487_g_at (6 h): 8
- expression level of TC41014_at (6 h): 18
- expression level of U44731_s_at (6 h): 54
- expression level of X67914_s_at (6 h): 39
- expression level of Z31202_s_at (6 h): 17
- expression level of aa144045_s_at (6 h): 17
- expression level of aa174748_at (6 h): 19
- expression level of c81206_rc_at (6 h): 13
- expression level of k00083_s_at (6 h): 45
- expression level of x12531_s_at (6 h): 49
- expression level of D86609_s_at (16 h): 45
- expression level of ET63436_at (16 h): 107
- expression level of MIP1-B_at (16 h): 97.5
- expression level of Msa.11439.0_s_at (16 h): 36
- expression level of Msa.15983.0_f_at (16 h): 56
- expression level of Msa.1669.0_f_at (16 h): 50
- expression level of Msa.18713.0_g_at (16 h): 49
- expression level of Msa.21745.0_s_at (16 h): 12
- expression level of TC3225_at (16 h): 37
- expression level of TC14671_g_at (16 h): 30
- expression level of TC16364_at (16 h): 10
- expression level of TC16828_at (16 h): 31
- expression level of TC17132_at (16 h): 126
- expression level of TC17495_at (16 h): 12
- expression level of TC17558_at (16 h): 98
- expression level of TC18221_at (16 h): 25
- expression level of TC19211_at (16 h): 22
- expression level of TC21156_at (16 h): 31
- expression level of TC23346_s_at (16 h): 13
- expression level of TC23450_s_at (16 h): 22
- expression level of TC24045_at (16 h): 25
- expression level of TC24067_at (16 h): 31
- expression level of TC25965_at (16 h): 50
- expression level of TC27326_g_at (16 h): 5
- expression level of TC29889_at (16 h): 13
- expression level of TC30384_g_at (16 h): 53
- expression level of TC30935_at (16 h): 86
- expression level of TC30992_s_at (16 h): 12
- expression level of TC31681_at (16 h): 22
- expression level of TC33206_at (16 h): 12
- expression level of TC33833_at (16 h): 23
- expression level of TC34186_at (16 h): 50
- expression level of TC36089_at (16 h): 165
- expression level of TC36583_at (16 h): 31
- expression level of TC37631_at (16 h): 29
- expression level of TC38094_at (16 h): 16
- expression level of TC38978_at (16 h): 8
- expression level of TC39012_at (16 h): 77
- expression level of TC39080_at (16 h): 24
- expression level of TC39762_at (16 h): 37
- expression level of TC40487_g_at (16 h): 13
- expression level of TC41014_at (16 h): 33
- expression level of U44731_s_at (16 h): 25
- expression level of X67914_s_at (16 h): 36
- expression level of Z31202_s_at (16 h): 45
- expression level of aa144045_s_at (16 h): 22
- expression level of aa174748_at (16 h): 21
- expression level of c81206_rc_at (16 h): 39
- expression level of k00083_s_at (16 h): 72
- expression level of x12531_s_at (16 h): 84
